Laboratory results reported in patent US7396837B2, “Antitumoral analogs of lamellarins” (Pharma Mar, S.A.U., priority 2002, dated 2008).
Where two headings read alike, the source gives them in different places.

What was measured:
Type in all cases: cell-based
LNCaP = experiment: SRB colorimetric cell growth inhibition assay, LNCaP; details: Homo sapiens, LNCaP; for GI50: GI=growth inhibition, read-out: GI50 LN-caP; for IC (TGI): total growth inhibition (cytostatic effect), read-out: TGI LN-caP; for CC50: cell killing (cytotoxic effect)
Summary of the method: (§1)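 Continuous drug exposure of human cancer cells; SRB protein stain read-out; triplicate wells, mean ± SD; GI, TGI, LC computed.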

K-562 = experiment: SRB colorimetric cell growth inhibition assay, K-562; details: Homo sapiens; for GI50: GI=growth inhibition, read-out: GI50 K-562; for IC (TGI): read-out: TGI K-562
Summary of the method: as §1

H-MEC-1 = experiment: SRB colorimetric cell growth inhibition assay, H-MEC-1; details: Homo sapiens, HMEC-1, H-MEC-1; for GI50: GI=growth inhibition, read-out: GI50 H-MEC-1; for IC (TGI): total growth inhibition (cytostatic effect), read-out: TGI H-MEC-1
Summary of the method: (§2)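 Growth inhibition (GI), total growth inhibition (TGI, cytostatic) and lethal concentration (LC, cytotoxic) come from an SRB-based colorimetric measure of growth and viability. Data are triplicate-well means ± SD.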

[1] = as above; details: human
Summary of the method: as §2

HT-29 = experiment: SRB colorimetric cell growth inhibition assay, HT-29; details: for GI50: HT-29, GI=growth inhibition, read-out: GI50 HT-29; for IC (TGI) / CC50: Homo sapiens; for IC (TGI): read-out: TGI HT-29
Summary of the method: as §1

LoVo = experiment: SRB colorimetric cell growth inhibition assay, LoVo; details: Homo sapiens, LoVo; for GI50: GI=growth inhibition, read-out: GI50 LOVO; for IC (TGI): read-out: TGI LOVO
Summary of the method: as §1

IGROV-ET = experiment: SRB colorimetric cell growth inhibition assay, IGROV-ET (ET-743 resistant); details: for GI50: GI=growth inhibition, read-out: GI50 IGROV-ET; for IC (TGI): total growth inhibition (cytostatic effect), read-out: TGI IGROV-ET; for CC50: cell killing (cytotoxic effect)
Summary of the method: as §1

PANC-1 = experiment: SRB colorimetric cell growth inhibition assay, PANC-1; details: for GI50: GI=growth inhibition, read-out: GI50 PANC-1
Summary of the method: as §1

SK-BR-3 = experiment: SRB colorimetric cell growth inhibition assay, SK-BR-3; details: for CC50: cell killing (cytotoxic effect); for GI50: GI=growth inhibition, read-out: GI50 SK-BR-3
Summary of the method: as §1

LoVo-Dox = experiment: SRB colorimetric cell growth inhibition assay, LoVo-Dox (MDR); details: Homo sapiens; for GI50: GI=growth inhibition, read-out: GI50 LOVO-DOX; for IC (TGI): read-out: TGI LOVO-DOX
Summary of the method: as §1

SKOV-3 = experiment: SRB colorimetric cell growth inhibition assay, SKOV-3; details: Homo sapiens; for GI50: SK-OV-3, SKOV-3, GI=growth inhibition, read-out: GI50 SKOV-3; for IC (TGI): total growth inhibition (cytostatic effect), read-out: TGI SKOV-3
Summary of the method: as §2

DU-145 = experiment: SRB colorimetric cell growth inhibition assay, DU-145; details: for TGI DU-145: total growth inhibition (cytostatic effect); for GI50: GI=growth inhibition, read-out: GI50 DU-145
Summary of the method: as §1

A-549 = experiment: SRB colorimetric cell growth inhibition assay, A-549; details: for GI50: GI=growth inhibition, read-out: GI50 A-549; for IC (TGI): read-out: TGI A-549
Summary of the method: as §1

SK-MEL-28 = experiment: SRB colorimetric cell growth inhibition assay, SK-MEL-28; details: for GI50: GI=growth inhibition, read-out: GI50 MEL-28
Summary of the method: as §1

IGROV = experiment: SRB colorimetric cell growth inhibition assay, IGROV; details: for GI50: GI=growth inhibition, read-out: GI50 IGROV; for IC (TGI): total growth inhibition (cytostatic effect), read-out: TGI IGROV
Summary of the method: as §1

`COc1cc(-c2c3c4cc(OC)c(OC(=O)[C@@H](N)C(C)C)cc4oc(=O)c3n3ccc4c(OC(=O)[C@@H](N)C(C)C)c(OC)c(OC)cc4c23)ccc1OC(=O)[C@@H](N)C(C)C` [Compound 35] gave a GI50 (LNCaP; LN-caP) of 0.0881 µM, an IC (TGI) (LNCaP; LN-caP) of 0.468 µM and a CC50 (LNCaP; read-out: LC50 LN-caP, LN-caP) of 2.22 µM. It also gave a GI50 (K-562; K562, K-562) of 0.0808 µM, an IC (TGI) (K-562; K562, K-562, TGI=total growth inhibition (cytostatic effect)) of 0.975 µM and a CC50 (K-562; K562, read-out: LC50 K-562, K-562, LC=cell killing (cytotoxic effect)) of 4.82 µM. The GI50 (H-MEC-1) was 0.0197 µM, the IC (TGI) (H-MEC-1) was 0.0403 µM and the LC50 (concentration giving 50% net cell killing) [1] was 0.0826 µM. For the same molecule, the GI50 (HT-29) was 1.18 µM, the IC (TGI) (HT-29; HT-29, HT-29, TGI=total growth inhibition (cytostatic effect)) was 2.44 µM and the CC50 (HT-29; HT-29, read-out: LC50 HT-29, HT-29, LC=cell killing (cytotoxic effect)) was 5.06 µM. For the same molecule, the CC50 (LoVo; read-out: LC50 LOVO, LOVO, LC=cell killing (cytotoxic effect)) was 2.6 µM, the GI50 (LoVo) was 0.207 µM and the IC (TGI) (LoVo; TGI=total growth inhibition (cytostatic effect)) was 0.705 µM. For the same molecule, the GI50 (IGROV-ET; Homo sapiens, IGROV-ET) was 0.192 µM, the IC (TGI) (IGROV-ET; Homo sapiens, IGROV-ET) was 0.855 µM and the CC50 (IGROV-ET; Homo sapiens, read-out: LC50 IGROV-ET, IGROV-ET) was 5.45 µM. It also gave an IC (TGI) (PANC-1; Homo sapiens, PANC-1, PANC-1, TGI=total growth inhibition (cytostatic effect), read-out: TGI PANC-1) of 1.21 µM, a CC50 (PANC-1; Homo sapiens, PANC-1, read-out: LC50 PANC-1, PANC-1, LC=cell killing (cytotoxic effect)) of 3.67 µM and a GI50 (PANC-1; PANC-1) of 0.178 µM. The IC (TGI) (SK-BR-3; Homo sapiens, SK-BR-3, SK-BR-3, total growth inhibition (cytostatic effect), read-out: TGI SK-BR-3) was 0.689 µM, the CC50 (SK-BR-3; Homo sapiens, SK-BR-3, read-out: LC50 SK-BR-3, SK-BR-3) was 4.03 µM and the GI50 (SK-BR-3; SK-BR-3) was 0.228 µM. It also gave a GI50 (LoVo-Dox; LOVO-DOX) of 0.217 µM, an IC (TGI) (LoVo-Dox; LOVO-DOX, TGI=total growth inhibition (cytostatic effect)) of 0.737 µM and a CC50 (LoVo-Dox; read-out: LC50 LOVO-DOX, LOVO-DOX, LC=cell killing (cytotoxic effect)) of 2.8 µM. It also gave a GI50 (SKOV-3) of 0.113 µM, an LC50 (concentration causing 50% net cell killing) (SKOV-3; SK-OV-3, read-out: LC50 SKOV-3) of 3.83 µM and an IC (TGI) (SKOV-3; SK-OV-3, SKOV-3) of 0.932 µM. The “TGI DU-145” value (DU-145; DU-145) was 8.81E−08 Molar, the GI50 (DU-145; Homo sapiens, DU-145, DU-145) was 0.0321 µM and the CC50 (DU-145; human) was 0.576 µM. The GI50 (A-549; A-549) was 0.0524 µM, the IC (TGI) (A-549; Homo sapiens, A549, A-549, TGI=total growth inhibition (cytostatic effect)) was 0.259 µM and the CC50 (A-549; Homo sapiens, A549, read-out: LC50 A-549, A-549, LC=cell killing (cytotoxic effect)) was 6.09 µM. The IC (TGI) (SK-MEL-28; Homo sapiens, SK-MEL-28, MEL-28, total growth inhibition (cytostatic effect), read-out: TGI MEL-28) was 0.915 µM, the GI50 (SK-MEL-28; MEL-28) was 0.0546 µM and the CC50 (SK-MEL-28; human) was 2.77 µM. The GI50 (IGROV; Homo sapiens, IGROV) was 0.152 µM, the IC (TGI) (IGROV; Homo sapiens, IGROV) was 0.907 µM and the CC50 (IGROV; human) was 4.05 µM.

For `COc1cc2ccn3c(c(-c4ccc(OC(=O)[C@@H](N)Cc5ccccc5)c(OC)c4)c4c5cc(OC)c(OC(=O)[C@@H](N)Cc6ccccc6)cc5oc(=O)c43)c2cc1OC` [Compound 18], the GI50 (LNCaP; LN-caP) was 0.359 µM, the CC50 (LNCaP; LN-caP, read-out: LC50 LN-caP) was 4.27 µM and the IC (TGI) (LNCaP; LN-caP) was 1.27 µM. The GI50 (K-562; K562, K-562) was 0.558 µM, the CC50 (K-562; K562, K-562, cell killing (cytotoxic effect), read-out: LC50 K-562) was 8.64 µM and the IC (TGI) (K-562; K562, K-562, total growth inhibition (cytostatic effect)) was 1.51 µM. The GI50 (H-MEC-1) was 0.494 µM, the IC (TGI) (H-MEC-1) was 0.846 µM and the LC50 (concentration giving 50% net cell killing) ([1]; H-MEC-1, cell killing (cytotoxic effect), read-out: LC50 H-MEC-1) was 2.93 µM. For the same molecule, the GI50 (HT-29) was 0.819 µM, the CC50 (HT-29; HT-29, HT-29, cell killing (cytotoxic effect), read-out: LC50 HT-29) was 12.3 µM and the IC (TGI) (HT-29; HT-29, HT-29, total growth inhibition (cytostatic effect)) was 4.54 µM. It also gave a GI50 (LoVo) of 0.664 µM, a CC50 (LoVo; cell killing (cytotoxic effect), read-out: LC50 LOVO) of 12.3 µM and an IC (TGI) (LoVo; total growth inhibition (cytostatic effect)) of 2.37 µM. For the same molecule, the CC50 (IGROV-ET; Homo sapiens, IGROV-ET, read-out: LC50 IGROV-ET) was 12.3 µM, the IC (TGI) (IGROV-ET; Homo sapiens, IGROV-ET) was 5.14 µM and the GI50 (IGROV-ET; IGROV-ET) was 2 µM. For the same molecule, the CC50 (PANC-1; Homo sapiens, PANC-1, PANC-1, cell killing (cytotoxic effect), read-out: LC50 PANC-1) was 12.3 µM, the GI50 (PANC-1; PANC-1) was 0.992 µM and the “TGI PANC-1” value (PANC-1; PANC-1, total growth inhibition (cytostatic effect)) was 3.70E−06 Molar. For the same molecule, the CC50 (SK-BR-3; Homo sapiens, SK-BR-3, SK-BR-3, read-out: LC50 SK-BR-3) was 10.5 µM, the GI50 (SK-BR-3; SK-BR-3) was 0.458 µM and the “TGI SK-BR-3” value (SK-BR-3; SK-BR-3, total growth inhibition (cytostatic effect)) was 2.14E−06 Molar. The GI50 (LoVo-Dox; LOVO-DOX) was 1.08 µM, the CC50 (LoVo-Dox; LOVO-DOX, cell killing (cytotoxic effect), read-out: LC50 LOVO-DOX) was 12.1 µM and the IC (TGI) (LoVo-Dox; LOVO-DOX, total growth inhibition (cytostatic effect)) was 3.67 µM. The GI50 (SKOV-3) was 1.22 µM, the LC50 (concentration causing 50% net cell killing) (SKOV-3; SK-OV-3, SKOV-3, cell killing (cytotoxic effect), read-out: LC50 SKOV-3) was 6.51 µM and the IC (TGI) (SKOV-3; SK-OV-3, SKOV-3) was 2.82 µM. For the same molecule, the GI50 (DU-145; DU-145) was 0.505 µM, the “TGI DU-145” value (DU-145; DU-145) was 1.41E−06 Molar and the CC50 (DU-145; Homo sapiens, DU-145, DU-145, cell killing (cytotoxic effect), read-out: LC50 DU-145) was 7.04 µM. It also gave a GI50 (A-549; Homo sapiens, A549, A-549) of 1.61 µM, a CC50 (A-549; Homo sapiens, A549, A-549, cell killing (cytotoxic effect), read-out: LC50 A-549) of 9.99 µM and an IC (TGI) (A-549; Homo sapiens, A549, A-549, total growth inhibition (cytostatic effect)) of 4 µM. For the same molecule, the GI50 (SK-MEL-28; MEL-28) was 0.524 µM, the CC50 (SK-MEL-28; MEL-28, cell killing (cytotoxic effect), read-out: LC50 MEL-28) was 4.43 µM and the “TGI MEL-28” value (SK-MEL-28; MEL-28, total growth inhibition (cytostatic effect)) was 1.44E−06 Molar. The CC50 (IGROV; Homo sapiens, IGROV, cell killing (cytotoxic effect), read-out: LC50 IGROV) was 7.91 µM, the IC (TGI) (IGROV; Homo sapiens, IGROV) was 3.21 µM and the GI50 (IGROV; IGROV) was 1.31 µM.
